Measured values as given in US20230165831A1, “METHOD AND COMPOSITION FOR RENDERING CANCER CELLS SUSCEPTIBLE TO TREATMENT BY TARGETED ONCOGENETIC DRIVERS” (IMPACT BIOLIFE SCIENCE, INC., priority 2021, published 2023).
Read-outs that look alike come from different tables or passages of the source.

How the values were obtained:
[1] = system: Liver cancer line SK-HEP-1 cells; experiment: CTG (CellTiter-Glo) cell viability assay, 6×6 combo matrix, 72 h, SK-Hep-1; details: Homo sapiens;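 further: luminescent signal read after 72 h compound exposure at 37 °C under 5% CO2, with medium-only wells serving as blank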
Experimental: (§1) 7) Using complete cell medium, adjust the volume of the suspension to achieve a cell concentration.
(§2) Solid compound of cis-platinum was solubilized in PBS to a stock solution of 3.333 mM.
(§3) Final volume is 100 µL per well at this point.
(§4) 1) Incubate the plates at room temperature and away from light for 30 minutes.
(§5) 3) Add 100 µL /well of CellTiter-Glo® Reagent in each well. Avoid light.
(§6) 4) Mix contents for 2 minutes on an orbital shaker.
(§7) 5) Incubate plate at room temperature for 10 minutes to stabilize the luminescent signal.

[2] = system: colorectal cancer line HT29 cells; experiment: CTG (CellTiter-Glo) cell viability assay, 6×6 combo matrix, 72 h, HT29; details: Homo sapiens, HT-29, read-out: Relatively Cell inhibition of vehicle control(%);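 further: cells exposed to compounds for 72 hours at 37 °C under 5% CO2, then viability read as luminescence after adding CellTiter-Glo Reagent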
[3] = system: ovarian cancer line SK-OV3 cells;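 further: luminescent signal read after CellTiter-Glo addition, cells exposed to compounds for 72 h at 37 °C under 5% CO2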
[4] = system: glioblastoma line U87MG cells; experiment: CTG (CellTiter-Glo) cell viability assay, 6×6 combo matrix, 72 h, U87MG; details: Homo sapiens, U-87 MG;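 further: U87MG cells seeded at 2000 per well, exposed 72 h, viability read by CellTiter-Glo luminescence, inhibition expressed relative to vehicle-treated wells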
Experimental: as §1
U87MG cell lines, for compounds and vehicle groups, the seeding density of cell lines is 2000 cells/80 µL per well. For blank groups, add 100 µL medium. For PBS groups, add 100 µL PBS.
as §2, §3, §4, §5, §6, §7

[5] = system: kidney cancer line 786-O cells; experiment: CTG (CellTiter-Glo) cell viability assay, 6×6 combo matrix, 72 h, 786-O; details: Homo sapiens, 786-0, read-out: Relatively Cell inhibition of vehicle control;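 further: luminescence read-out after adding CellTiter-Glo reagent, with cells incubated at 37 °C under 5% CO2 during compound exposure, part of a ten cell line synergy study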
Experimental: as §1, §2, §3, §4, §5, §6, §7

[6] = system: breast cancer line T47D cells;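 further: luminescence read-out after 72 h at 37 °C under 5% CO2, with medium-only wells as blanks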
Experimental: as §1, §2, §3, §4, §5, §6, §7

[7] = system: Liver cancer line SK-HEP-1 cells;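 further: luminescent signal read after 72 h compound exposure at 37 °C under 5% CO2, with medium-only wells serving as blank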
Experimental: as §1, §2, §3, §4, §5, §6, §7

[8] = system: prostate adenocarcinoma line LNCap cells;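 further: luminescence signal read after adding CellTiter-Glo reagent, with cells exposed to compounds for 72 h at 37 °C under 5% CO2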
Experimental: as §1, §2, §3, §4, §5, §6, §7

[9] = system: pancreatic cancer line Capan-1 cells; experiment: CTG (CellTiter-Glo) cell viability assay, 6×6 combo matrix, 72 h, Capan-1; type: cell-based; details: Homo sapiens, CAPAN-1; read-out: Relatively Cell inhibition of vehicle control
Experimental: To measure the cell inhibition effect of compounds and synergy effect of test articles on ten (10) cell lines using standard CTG assay.
b. A549, T47D, SK-OV-3, MKN45, SK-Hep-1, HT-29, Capan-1, 786-O and LNCaP cell line, for compounds and vehicle groups, the seeding density of cell lines is 3000 cells/80 µL per well. For blank groups, add 100 µL medium. For PBS groups, add 100 µL PBS.
8) Incubate the U87MG, A549, T47D, SK-OV-3, MKN45, SK-Hep-1, HT-29, Capan-1, 786-O and LNCaP cells overnight at 37° C./5% CO2.
5) Incubate the plates at 37° C./5% CO2 for 72 hours.
6) Read plates in Envision.

[10] = system: breast cancer line T47D cells; experiment: CTG (CellTiter-Glo) cell viability assay, 6×6 combo matrix, 72 h, T47D; details: Homo sapiens;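 further: luminescence read-out after 72 h at 37 °C under 5% CO2, with medium-only wells as blanks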
Experimental: as §1, §2, §3, §4, §5, §6, §7

[11] = system: lung adenocarcinoma line A549 cells; experiment: CTG (CellTiter-Glo) cell viability assay, 6×6 combo matrix, 72 h, A549; details: Homo sapiens, A549, read-out: Relatively Cell inhibition of vehicle control(%);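 further: luminescent ATP readout with CellTiter-Glo after compound exposure, used to assess growth inhibition and combination synergy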

Structure (SMILES): COc1cccc2c1C(=O)c1c(O)c3c(c(O)c1C2=O)C[C@@](O)(C(=O)CO)C[C@@H]3O[C@H]1C[C@H](N)[C@H](O)[C@H](C)O1 [doxorubicin]
- inhibition at […] ([1]; SK-HEP1, read-out: Relatively Cell inhibition of vehicle control, doxorubicin 16 nM only (myricetin table)): 6.89%
- inhibition at 0.08 µM ([1]; SK-HEP1, read-out: Relatively Cell inhibition of vehicle control, doxorubicin 80 nM only (LB-1 table)): 31.3%
- inhibition at 0.08 µM ([1]; SK-HEP1, read-out: Relatively Cell inhibition of vehicle control, doxorubicin 80 nM only (myricetin table)): 25.5%
- inhibition at 0.4 µM ([1]; SK-HEP1, read-out: Relatively Cell inhibition of vehicle control, doxorubicin 400 nM only (LB-1 table)): 66.2%
- inhibition at 0.4 µM ([1]; SK-HEP1, read-out: Relatively Cell inhibition of vehicle control, doxorubicin 400 nM only (myricetin table)): 68.5%
- inhibition at 2 µM ([1]; SK-HEP1, read-out: Relatively Cell inhibition of vehicle control, doxorubicin 2000 nM only (LB-1 table)): 98.6%
- inhibition at 2 µM ([1]; SK-HEP1, read-out: Relatively Cell inhibition of vehicle control, doxorubicin 2000 nM only (myricetin table)): 98.5%
- inhibition at 10 µM ([1]; SK-HEP1, read-out: Relatively Cell inhibition of vehicle control, doxorubicin 10000 nM only (LB-1 table)): 99.4%
- inhibition at 10 µM ([1]; SK-HEP1, read-out: Relatively Cell inhibition of vehicle control, doxorubicin 10000 nM only (myricetin table)): 99.4%
- inhibition at 0.08 µM [2]: 25.6%
- inhibition at 0.4 µM [2]: 61.1%
- inhibition at 2 µM [2]: 92.3%
- inhibition at 10 µM [2]: 79.1%
- inhibition [3]: 2.75%
- inhibition at 0.08 µM ([4]; 72 h, read-out: Relatively Cell inhibition of vehicle control(%), U87MG, 80 nM doxorubicin only (LB-1 0), 72 h): 50%
- inhibition at 0.4 µM ([4]; 72 h, read-out: Relatively Cell inhibition of vehicle control(%), U87MG, 400 nM doxorubicin only (LB-1 0), 72 h): 91.3%
- inhibition at 2 µM ([4]; 72 h, read-out: Relatively Cell inhibition of vehicle control(%), U87MG, 2000 nM doxorubicin only (LB-1 0), 72 h): 72.4%
- inhibition at 10 µM ([4]; 72 h, read-out: Relatively Cell inhibition of vehicle control(%), U87MG, 10000 nM doxorubicin only (LB-1 0), 72 h): 78.4%
- inhibition at […] ([4]; read-out: Relatively Cell inhibition of vehicle control(%), doxorubicin 16 nM only): 27.4%
- inhibition at 0.08 µM ([4]; read-out: Relatively Cell inhibition of vehicle control(%), doxorubicin 80 nM only): 52.5%
- inhibition at 0.4 µM ([4]; read-out: Relatively Cell inhibition of vehicle control(%), doxorubicin 400 nM only): 93%
- inhibition at 2 µM ([4]; read-out: Relatively Cell inhibition of vehicle control(%), doxorubicin 2000 nM only): 78.3%
- inhibition at 10 µM ([4]; read-out: Relatively Cell inhibition of vehicle control(%), doxorubicin 10000 nM only): 80.8%
- inhibition at 0.08 µM [5]: 24%
- inhibition at 0.4 µM [5]: 64.9%
- inhibition at 2 µM [5]: 76.2%
- inhibition at 10 µM [5]: 83.8%
- inhibition [6]: 0.17%
- inhibition [7]: 4.48%
- inhibition [8]: 7.17%
- inhibition at 0.08 µM [9]: 44.8%
- inhibition at 0.4 µM [9]: 68%
- inhibition at 2 µM [9]: 86.9%
- inhibition at 10 µM [9]: 74.9%
- inhibition at […] ([10]; read-out: Relatively Cell inhibition of vehicle control(%), T47D, 16 nM doxorubicin only (myricetin 0)): 6.02%
- inhibition at 0.08 µM ([10]; read-out: Relatively Cell inhibition of vehicle control(%), T47D, 80 nM doxorubicin only (LB-1 0)): 19.3%
- inhibition at 0.08 µM ([10]; read-out: Relatively Cell inhibition of vehicle control(%), T47D, 80 nM doxorubicin only (myricetin 0)): 23%
- inhibition at 0.4 µM ([10]; read-out: Relatively Cell inhibition of vehicle control(%), T47D, 400 nM doxorubicin only (LB-1 0)): 50.2%
- inhibition at 0.4 µM ([10]; read-out: Relatively Cell inhibition of vehicle control(%), T47D, 400 nM doxorubicin only (myricetin 0)): 53.7%
- inhibition at 2 µM ([10]; read-out: Relatively Cell inhibition of vehicle control(%), T47D, 2000 nM doxorubicin only (LB-1 0)): 51.6%
- inhibition at 2 µM ([10]; read-out: Relatively Cell inhibition of vehicle control(%), T47D, 2000 nM doxorubicin only (myricetin 0)): 59%
- inhibition at 10 µM ([10]; read-out: Relatively Cell inhibition of vehicle control(%), T47D, 10000 nM doxorubicin only (LB-1 0)): 45.3%
- inhibition at 10 µM ([10]; read-out: Relatively Cell inhibition of vehicle control(%), T47D, 10000 nM doxorubicin only (myricetin 0)): 48.1%
- inhibition at 0.08 µM [11]: 42.2%
- inhibition at 0.4 µM [11]: 61.4%
- inhibition at 2 µM [11]: 95.8%
- inhibition at 10 µM [11]: 94.3%
